Results on two compounds are retold here after patent US8138191B2, “Inhibitor compounds and cancer treatment methods” (Critical Outcome Technologies Inc., priority 2007, dated 2012).

The test system of data set [1] is Akt kinase activity in SHP-77 cells. The experiment in a line: Akt kinase activity (immunoprecipitated Akt, GSK-3 phosphorylation), SHP-77. The following applies: SHP-77, 250 nM, 2-24 hrs.
Data set [2] relates to human plasma. The experiment in a line: in vitro. The class given is in vitro ADME. Particulars: 10 µM. How it is done:
(§1) Commercially obtained (Rockland Immunochemicals Inc.), non-sterile, species-specific plasma (human, monkey, and dog) with sodium anticoagulant added was utilized for this study. […] Dialysis membrane strips (12-14K MWCO) were presoaked in water and ethanol, rinsed and then kept in buffer until use. Following assembly of the 96-well dialysis apparatus, […] membrane strips placed between the dialysis and sample compartments. The dialysate compartment was loaded with 0.15 ml phosphate buffer was added to the dialysis side of each well. Plasma (unfiltered) was spiked with 10 μM COTI-2 (1% DMSO) and 0.15 ml added to the sample side of each well. After loading, samples are covered and incubated at 37° C. until equilibrium was reached (at least 8 hours). Equal volumes of sample were removed from the buffer and plasma sides of each well, diluted with acetonitrile/buffer and centrifuged. Also at this time an additional sample was prepared (in duplicate) by spiking COTI-2 in plasma at 10 μM, followed by sampling and diluting in acetonitrile/buffer in the same manner as the incubated plasma sample. This calibration sample served as the basis of a recovery determination. The supernatants were analyzed by HPLC-MS/MS and the peak response of COTI-2 in both dialysis and sample compartments, and in the calibration sample, were subsequently determined in two independent replicates. […] The HPLC conditions consist of a binary LC pump with autosampler, a C18 column (2×20 mm), and gradient elution. The percent bound to plasma/serum proteins and percent recovery of the compounds were calculated. The recovery determination serves as an indicator as to the reliability of the calculated protein binding value.

A short description of data set [3]: in vitro. The class given is in vitro ADME. The method, then: as §1
The test system of data set [4] is dog plasma. The experiment in a line: in vitro. The class given is in vitro ADME. Particulars: mixed breeds, 10 µM. How it is done:
as §1

The target of data set [5] is CYP1A (Homo sapiens, UniProt P05177). The experiment in a line: in vitro. Particulars: both.
Sequence of CYP1A (P05177 whole entry): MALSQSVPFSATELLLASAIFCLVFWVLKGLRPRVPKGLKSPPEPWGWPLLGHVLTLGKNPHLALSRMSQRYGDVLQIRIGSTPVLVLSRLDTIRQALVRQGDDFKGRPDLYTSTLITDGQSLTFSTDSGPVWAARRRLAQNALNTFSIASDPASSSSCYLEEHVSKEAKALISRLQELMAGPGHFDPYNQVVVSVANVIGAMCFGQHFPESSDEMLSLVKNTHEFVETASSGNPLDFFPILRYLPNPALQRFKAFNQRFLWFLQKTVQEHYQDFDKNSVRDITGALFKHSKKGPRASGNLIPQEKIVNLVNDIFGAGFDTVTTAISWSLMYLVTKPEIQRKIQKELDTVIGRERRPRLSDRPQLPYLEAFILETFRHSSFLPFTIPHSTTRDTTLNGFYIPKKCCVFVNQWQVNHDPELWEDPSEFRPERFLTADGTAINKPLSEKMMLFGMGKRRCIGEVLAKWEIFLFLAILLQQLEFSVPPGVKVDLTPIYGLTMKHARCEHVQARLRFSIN
Data set [6] has as its target T1, CYP2B6 (Homo sapiens, UniProt P20813).
T1 sequence (P20813 1-491): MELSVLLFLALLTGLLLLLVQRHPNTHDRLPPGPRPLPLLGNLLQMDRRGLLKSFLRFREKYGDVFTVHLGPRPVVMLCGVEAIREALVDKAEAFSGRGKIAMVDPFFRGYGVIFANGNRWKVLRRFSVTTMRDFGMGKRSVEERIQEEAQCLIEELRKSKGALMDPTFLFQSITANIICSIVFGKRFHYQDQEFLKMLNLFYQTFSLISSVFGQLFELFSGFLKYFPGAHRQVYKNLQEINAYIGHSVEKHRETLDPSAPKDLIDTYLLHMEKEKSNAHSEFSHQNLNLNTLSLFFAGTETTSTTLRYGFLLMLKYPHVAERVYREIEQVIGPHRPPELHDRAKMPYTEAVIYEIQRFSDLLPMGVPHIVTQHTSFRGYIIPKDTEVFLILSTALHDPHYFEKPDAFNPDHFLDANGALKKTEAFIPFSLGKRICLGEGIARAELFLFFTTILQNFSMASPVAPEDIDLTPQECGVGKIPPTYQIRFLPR
The experiment in a line: in vitro. The following applies: both.

In data set [7] the test system is SHP77 cells. The data set is described as follows: Western blots of cellular lysates of SHP77 cells treated with COTI-2. The class given is cell-based, human. The following applies: 250 nM. How it is done:
To confirm this mechanism SHP77 cells were treated with 250 nM of COTI-2 and incubated for 3 and 6 hours. Phospho-Akt expression was decreased as compared to control at both 3 and 6 hours, with corresponding increases in Akt levels.

In data set [8] the test system is DMS114 cells. The experiment in a line: Proliferation with anti-cancer agents plus COTI-2, DMS114. The class given is cell-based, human.
In data set [9] the target is CYP2E1 (Homo sapiens, UniProt P05181). The data set is described as follows: CYP2E1 Inhibition (HLM, chlorzoxanzone substrate).
Sequence of CYP2E1 (P05181 whole entry): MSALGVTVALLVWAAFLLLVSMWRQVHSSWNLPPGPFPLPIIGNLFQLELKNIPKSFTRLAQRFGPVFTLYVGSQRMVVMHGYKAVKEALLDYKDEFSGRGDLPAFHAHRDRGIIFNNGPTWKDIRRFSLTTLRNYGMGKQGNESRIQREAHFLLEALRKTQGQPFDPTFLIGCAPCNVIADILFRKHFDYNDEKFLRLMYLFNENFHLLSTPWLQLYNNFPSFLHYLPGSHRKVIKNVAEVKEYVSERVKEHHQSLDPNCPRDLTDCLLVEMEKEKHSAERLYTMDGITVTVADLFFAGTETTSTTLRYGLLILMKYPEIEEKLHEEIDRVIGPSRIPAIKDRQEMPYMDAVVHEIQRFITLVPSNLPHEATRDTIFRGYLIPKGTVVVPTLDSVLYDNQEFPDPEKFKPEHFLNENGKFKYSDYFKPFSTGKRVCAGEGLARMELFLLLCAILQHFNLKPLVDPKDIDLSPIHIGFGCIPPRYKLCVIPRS
In data set [10] the test system is DMS114 cells. The experiment in a line: Cell cycle analysis of DMS114 cells by FACS. The class given is cell-based, human. The following applies: DMS114, 1.5 μM, 24 h. The method, then:
Approximately 2×10^5 DMS114 cells were incubated for 24 h with the indicated concentrations of COTI-219. Following incubation with COTI-219 the cells were washed and re-suspended in 0.5 ml of BP Pharmingen Propidium Iodide staining solution (Cat. No. 556463) for FACS analysis in order to determine the changes in the cell cycle.

Data set [11] has as its system cleaved caspases 3 and 9. The data set is described as follows: Cleaved caspase 3 and 9 by western blot after COTI-219. The class given is cell-based, human. Particulars: 12 h incubation, dose-dependent increase. How it is done:
Cell viability assays were performed 24 to 48 h following incubation with COTI-219 by the trypan blue exclusion method using a Beckman-Coulter Vi-CELL XR 2.03 automated cell counter. Routine laboratory methods were employed for the production of cellular lysates, protein quantitation, SDS-PAGE and western blotting. All antibodies were obtained from Cell Signaling (Erk1/2 #4695, Ras #3965, CDK2 #2546, PKCalpha #2056, EGFR #2232, and ERBB2 #2165).
In lung cancer, oncogenic Ras exerts anti-apoptotic effects, in part by up-regulating the multi-functional PKB/AKT kinase. Activated PKB/AKT phosphorylates and inhibits caspase 9 activation. In order to determine whether caspase 9 activation mediates COTI-219 apoptosis, cells were incubated for 12 h with vehicle or increasing concentrations of COTI-219 and the expression levels of cleaved caspases 3 and 9 were determined. There was a dose-dependent increase in the levels of both cleaved caspases, peaking at 0.5 μM of COTI-219. Beyond this concentration, activated caspase 9 was not detectable and there was a decline in cleaved caspase 3.
A general note: In western blotting, separated proteins are transferred to a membrane and probed.

Molecules are shown by their SMILES. A value given as a limit tells only on which side of the number the result lay.

In the case of `S=C(N/N=C1/CCCc2cccnc21)N1CCN(c2ccccn2)CC1` [COTI-2], the Akt kinase activity entry in data set [1] is listed as “more gradual decrease”. For the same compound, the “% Protein Bound 1st” value in data set [2] was determined as 99.8%; in data set [4], 99.1%. Also, the figures for the “% Protein Bound 2nd” value in [2] and in data set [4] were >99.9% and 99.7%, respectively. For the same compound, the figures for the “% Protein Bound Mean” value in data set [2] and in data set [4] were 99.8% and 99.4%, respectively. The percent protein bound in data set [2] and in data set [4] was > 99% throughout. The recovery at 10 µM in [3] (human, % Recovery 1st) was 6.7%; in data set [3] (human, % Recovery 2nd) it was 2.9%; in data set [3] (human, % Recovery Mean) it was 4.8%; in data set [3] (human, percent recovery), < 50%; in [3] (mixed breeds, dog, % Recovery 1st) it was 42.6%; in [3] (mixed breeds, dog, % Recovery 2nd), 32.8%. Further, the recovery at 10 µM in data set [3] (mixed breeds, dog, % Recovery Mean) was 37.7%; in data set [3] (mixed breeds, dog, percent recovery), < 50%. Also, the inhibition at 15 min, 10 µM in data set [5] (human liver microsomes, pH 7.4, probe phenacetin (10 µM)) was -2%; in [5] (liver microsomes, pH 7.4, probe phenacetin) it was < 50%; in [6] (human liver microsomes, pH 7.4, probe bupropion (10 µM)) it was 5%; in data set [6] (liver microsomes, pH 7.4, probe bupropion), < 50%. In addition, the “Caspase 8 level of expression” value in data set [7] is listed as “remained constant”. In addition, the phospho-STAT3 expression entry in data set [7] was “no change”. Also, the Phospho-Akt expression result in data set [7] (3 and 6 hours) is on record as “decreased”. Also, the “phospho-Caspase 9” value in data set [7] (3 and 6 hrs) is listed as “profound suppression”. Further, the “decrease in total STAT3” value in data set [7] (6 hrs) is on record as ~30%. Moreover, the “reduction of proliferation as a single agent” value in [8] (DMS114, 31 nM) is on record as 25%; in [8] (DMS114, 73 nM), 25%. The percent inhibition entry in data set [9] (CYP2E1, 10 μM) is on record as “below 50%”. In addition, in data set [9] (CYP2E1, HLM, chlorzoxazone substrate, 1.0E−05 M), the “% Inhibition of Control Values” is recorded as −2%.

In the case of `CN1CCN(C(=S)NN=C2c3ncccc3-c3cccnc32)CC1` [COTI-219], the cell cycle effect entry in data set [10] is given as “cell cycle arrest in G1”. In [11], the “concentration at which levels of cleaved caspases 3 and 9 peak” value is 0.5 µM.

As a reminder, the inhibition is the drop in the measured response relative to a control, in per cent.
